Measurements as given in patent US20250032425A1, “FIRST IN CLASS USE OF ESTROGEN RECEPTOR BETA AGONISTS IN TREATING ANGELMAN SYNDROME AND RELEVANT AUTISM SPECTRUM DISORDERS” (BROWN UNIVERSITY, priority 2023, published 2025).

Tested on: ERK/MAPK signaling pathway
Experiment: ERK/MAPK and S6 activation in iOPCs by immunoblotting (phosphorylated to total ratio)
Format: cell-based, human
Excerpt: FIGS. 20A-20E depict the identification of ESR-β signaling pathway in regulating OPC proliferation impaired by UBE3A depletion. FIG. 20A: Immunofluorescence to track estrogen receptor (ESR) expression in OPCs, by staining of all 3 ESRs, ESR-α, ESR-β and GPER (top panels), in iOPCs co-labeled with UBE3A (middle panels) and DAPI; scale bar, 100 μm. […] FIG. 20B: Immunoblotting to assess OPC expression of individual ESRs, by analyzing protein levels of ESR-α, ESR-β and GPER in iOPCs treated with siNC or siUBE3A, normalized to GAPDH and expressed relative to the siNC condition (set as 1.0). After treatment with siUBE3A, expression of ESR-β was decreased, while expression of GPER was increased. n=5-6 experiments. FIG. 20C: The activation of the ERK/MAPK signaling pathway in OPCs, particularly downstream of ESR-β, was analyzed in iOPCs subjected to 6 knockdown conditions: siNC, siUBE3A, siESRα, siESRβ, and combinations of siUBE3A with siESRα or siESRβ. These were followed by treatment with vehicle control or the ESR-β agonist AC-186 (10 μM, 30 min). The activation of ERK and its substrate S6 was determined by the ratio of phosphorylated to total ERK and S6 levels, adjusted relative to the vehicle control group (standard value of 1.0). ERK phosphorylation and S6 phosphorylation was decreased in cells treated with siESRβ, or siESRβ and siUBE3A combined. n=3 experiments. FIG. 20D: Immunoblotting to evaluate the role of ERK/MAPK activation in the restoration of OPC proliferation following ESR-β activation, with the addition of ERK phosphorylation inhibitors U0126 or PD98059 to UBE3A-depleted OPCs, with or without AC-186 co-treatment (10 μM. 24 hours). The quantification of Ki67 expression and UBE3A levels, being normalized to β-tubulin (TUBB1) and compared to the siNC condition (value of 1.0). n=5 experiments. FIG. 20E: A schematic depicting the regulatory role of ESR-β signaling pathway in OPC proliferation, identified by combining genetic knockdown techniques and pharmacological interventions. Activation of ESR-β selectively triggers the ERK/MAPK pathway, as shown by ERK phosphorylation and the ERK substrate S6 activation, essential for cell proliferation. […] As applicable: statistical significance was determined using One-way ANOVA followed by post-hoc comparisons, with selected comparisons presented. Significance levels marked as *p<0.05. ** p<0.005. *** p<0.001. **** p<0.0001, ns not significant, across relevant comparisons.
The siRNAs targeting UBE3A (Thermo Fisher, #4390815 and #4390816), estrogen receptors (Thermo Scientific #145909 for ESRβ, #145539 for ESRα, and #4390824 for GPER), and negative control (Thermo Scientific, #AM4615) were obtained commercially. The 10-20 nM final concentration was used with Lipofectamine RNAiMAX transfection reagent (Thermo Scientific #13778075) and incubated for at least 48 hours before the treatments of therapeutic compounds or other reagents.
Cells were collected by fast spin down in centrifuge tubes before lysis in RIPA buffer (ThermoFisher, #89901) supplemented with proteinase inhibitor cocktail (Sigma-Aldrich, #5892791001) on ice. Lysates were then spun down at 15000 rpm for 10 mins, the supernatant was collected and mixed with 4× Laemmle sample buffer (Bio-Rad, #1610747) and cooked 10 mins before SDS-PAGE and transferred with Bio-Rad fast transfer system, the membranes were blocked for one hour in 1× Tris Buffered Saline (TBS) with 1% Casein buffer (Bio-Rad, #1610782) and incubated with primary antibodies overnight at 4 degrees. After 3 times washing in TBST washing buffers (ThermoFisher, #28352), the membranes were incubated with HRP conjugated antibodies and developed with Clarity Max™ Western ECL Substrate (Bio-Rad, #1705062) before being filmed in the iBright imaging system.

[1] = UBE3A-depleted iOPCs, AC-186 10 μM, 30 min

## Oc1ccc(C2(c3ccccc3F)CCC(F)(F)CC2)cc1 [AC-186]
[1]
  UBE3A levels: remained unchanged
  activity of ERK: restored
  activity of S6: restored
siESRα
  effects on ERK/MAPK activation when ESR-α was knocked down: did not reverse the effects of AC-186
siESRβ
  effects on ERK/MAPK activation when ESR-β was knocked down: negated
